Earlier results, collected in US12534749B2, “Monoacylated MEL-producing microorganism” (NATIONAL INSTITUTE OF ADVANCED INDUSTRIAL SCIENCE AND …, priority 2019, dated 2026).

Conditions: known value, T. Fukuoka et al., Carbohydrate Research 351 (2012) 81-86

CMC: 3.1 µM
Substance: diacylated MEL-B
